The record followed here is patent publication US12662491B2 (Redona Therapeutics, Inc., priority 2020, dated 2026).

SMILES strings stand for the structures.

In one experiment the target is T1, Zcchc11 enzyme (Homo sapiens, UniProt Q5TAX3).
T1 construct: made in house; host or cells: HEK293 cells (Zcchc11); E. coli Rosetta II (LIN28A)
T1 sequence (Q5TAX3 212-1420): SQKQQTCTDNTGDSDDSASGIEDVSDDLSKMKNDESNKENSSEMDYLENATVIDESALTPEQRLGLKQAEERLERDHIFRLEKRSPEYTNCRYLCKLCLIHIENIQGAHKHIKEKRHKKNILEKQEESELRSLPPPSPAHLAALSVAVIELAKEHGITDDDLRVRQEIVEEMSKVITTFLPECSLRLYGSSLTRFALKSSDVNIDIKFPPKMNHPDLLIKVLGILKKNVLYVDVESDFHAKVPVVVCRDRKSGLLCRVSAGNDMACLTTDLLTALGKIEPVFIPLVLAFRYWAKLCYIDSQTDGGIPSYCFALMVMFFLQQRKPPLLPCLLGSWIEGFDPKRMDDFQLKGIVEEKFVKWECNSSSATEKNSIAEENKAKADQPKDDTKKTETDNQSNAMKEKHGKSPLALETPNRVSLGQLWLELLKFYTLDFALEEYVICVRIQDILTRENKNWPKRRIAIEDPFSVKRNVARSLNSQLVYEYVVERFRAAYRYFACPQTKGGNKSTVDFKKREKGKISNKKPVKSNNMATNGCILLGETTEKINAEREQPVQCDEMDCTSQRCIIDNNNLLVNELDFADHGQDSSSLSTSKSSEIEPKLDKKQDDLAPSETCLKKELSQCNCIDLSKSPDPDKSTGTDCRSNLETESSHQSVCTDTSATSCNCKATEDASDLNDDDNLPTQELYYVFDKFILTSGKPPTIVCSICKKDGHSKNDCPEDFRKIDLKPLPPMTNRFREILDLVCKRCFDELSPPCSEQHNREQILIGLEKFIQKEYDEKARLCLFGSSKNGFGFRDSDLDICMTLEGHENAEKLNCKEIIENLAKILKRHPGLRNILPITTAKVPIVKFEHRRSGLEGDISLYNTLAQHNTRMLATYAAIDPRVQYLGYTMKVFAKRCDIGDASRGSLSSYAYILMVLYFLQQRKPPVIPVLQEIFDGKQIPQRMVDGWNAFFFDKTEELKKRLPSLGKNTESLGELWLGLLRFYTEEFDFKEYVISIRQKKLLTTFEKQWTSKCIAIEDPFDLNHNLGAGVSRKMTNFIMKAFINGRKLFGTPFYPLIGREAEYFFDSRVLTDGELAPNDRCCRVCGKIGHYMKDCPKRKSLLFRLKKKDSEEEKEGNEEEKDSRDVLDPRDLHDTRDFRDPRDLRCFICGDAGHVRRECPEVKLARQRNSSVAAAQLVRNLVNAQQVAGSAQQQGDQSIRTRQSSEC
In words: TUTase assay (Zcchc11 assay, Lin28a-dependent polyuridylation of pre-let-7). The experiment is classed as biochemical. The conditions noted are these: LIN28A 10 nM, Zcchc11 0.2 nM, 5′-fluorescein pre-let-7 miRNA 2 nM, UTP 5 uM, room temperature, 30 minutes pre-incubation; read-out: Potency Lin28a-dep Z11 IC50. In short, it runs like this: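 Readout: time-dependent quench of 5′-fluorescein pre-let-7 (2 nM) as 3′-rhodamine A20 probe anneals to poly(U) tails. Enzyme 0.2 nM Zcchc11 (res. 212-1420), LIN28A 10 nM, UTP 5 uM; pH 7.3 HEPES, 150 mM KCl, 5 mM MgCl2, RT. 4-parameter IC50; 100% = DMSO, 0% = no UTP.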
One may read the IC50 as the point on the concentration scale where inhibition reaches its midpoint. In the case of `O=C(O)c1cn(-c2cnccn2)c2cc(N3C[C@@H](F)C[C@@H]3COc3ncccc3Cl)c(Cl)cc2c1=O` [Example 41, 6-chloro-7-[(2R,4S)-2-{[(3-chloropyridin-2-yl)oxy]methyl}-4-fluoropyrrolidin-1-yl]-4-oxo-1-(pyrazin-2-yl)-1,4-dihydroquinoline-3-carboxylic acid], the IC50 was not above 1000 nM. With `CN(C)C1CN(c2ccc(-n3cc(C(=O)O)c(=O)c4cc(Cl)c(N5CCC[C@@H]5COc5ncccc5Cl)cc43)cn2)C1` [Example 78, 6-chloro-7-[(2R)-2-{[(3-chloropyridin-2-yl)oxy]methyl}pyrrolidin-1-yl]-1-{6-[3-(dimethylamino)azetidin-1-yl]pyridin-3-yl}-4-oxo-1,4-dihydroquinoline-3-carboxylic acid], the IC50 was not above 1000 nM. On the same count and under the same terms, for `COc1c(N2CCC[C@@H]2COc2ccccn2)c(F)cc2c(=O)c(C(=O)O)cn(C3CC3)c12` [Example 3, (R)-1-cyclopropyl-6-fluoro-8-methoxy-4-oxo-7-(2-((pyridin-2-yloxy)methyl)pyrrolidin-1-yl)-1,4-dihydroquinoline-3-carboxylic acid] the value was more than 50000 nM.

Regarding `O=C(O)c1cn(-c2ccc3c(c2)COC3)c2cc(N3CCC[C@@H]3COc3ncccc3Cl)c(Cl)cc2c1=O` [Example 18, (R)-6-chloro-7-(2-(((3-chloropyridin-2-yl)oxy)methyl)pyrrolidin-1-yl)-1-(1,3-dihydroisobenzofuran-5-yl)-4-oxo-1,4-dihydroquinoline-3-carboxylic acid], the IC50 is not above 1000 nM.

For the compound `Nc1ccc(-n2cc(C(=O)O)c(=O)c3cc(Cl)c(N4CCC[C@@H]4COc4ncccc4Cl)cc32)cn1` [Example 40, (R)-1-(6-aminopyridin-3-yl)-6-chloro-7-(2-(((3-chloropyridin-2-yl)oxy)methyl)pyrrolidin-1-yl)-4-oxo-1,4-dihydroquinoline-3-carboxylic acid], the IC50 was not above 1000 nM.

Regarding `O=C(O)c1cn(-c2cncc(O)n2)c2cc(N3CCC[C@@H]3COc3ccccn3)c(F)cc2c1=O` [Example 27, (R)-6-fluoro-1-(6-hydroxypyrazin-2-yl)-4-oxo-7-(2-((pyridin-2-yloxy)methyl)pyrrolidin-1-yl)-1,4-dihydroquinoline-3-carboxylic acid], the IC50 lay within 1000 to 10000 nM.

Still in this experiment, the particulars now being: Lin28a-dependent Zcchc11 (Z11) TUTase activity; read-out: Potency Lin28a-dep Z11 IC50.
On to `Cc1cccc(OC[C@H]2CCCN2c2cc3c(cc2F)c(=O)c(C(=O)O)cn3-c2ccccc2)n1` [Compound 92, (R)-6-fluoro-7-(2-(((6-methyl-pyridin-2-yl)oxy)methyl)pyrrolidin-1-yl)-4-oxo-1-phenyl-1,4-dihydro-quinoline-3-carboxylic acid], for which the concentration for half-maximal inhibition (IC50) was not above 1000 nM. The same measure, in the same setting: in the case of `O=C(O)c1cn(-c2ccc(O)cc2)c2cc(N3CCC[C@@H]3COc3nccc4cc[nH]c34)c(F)cc2c1=O` [Compound 117, (R)-7-(2-(((1H-pyrrolo[2,3-c]pyridin-7-yl)oxy)methyl)pyrrolidin-1-yl)-6-fluoro-1-(4-hydroxy-phenyl)-4-oxo-1,4-dihydro-quinoline-3-carboxylic acid] it was not above 1000 nM; in that of `COCCN(C)C1CN(c2ccc(-n3cc(C(=O)O)c(=O)c4cc(F)c(N5CCC[C@@H]5COc5ncccc5Cl)cc43)cn2)C1` [Compound 278, (R)-7-(2-(((3-chloropyridin-2-yl)oxy)methyl)pyrrolidin-1-yl)-6-fluoro-1-(6-(3-((2-methoxyethyl) (methyl)amino)azetidin-1-yl)pyridin-3-yl)-4-oxo-1,4-dihydro-quinoline-3-carboxylic acid], not above 1000 nM. Same read-out and setting: in the case of `COc1ccnc(OC[C@H]2C[C@H]3C[C@H]3N2c2cc3c(cc2Cl)c(=O)c(C(=O)O)cn3-c2ccc(N(C)C)nc2)c1Cl` [Compound 267, 6-chloro-7-((1R,3R,5R)-3-(((3-chloro-4-methoxy-pyridin-2-yl)oxy)methyl)-2-azabicyclo [3.1.0]hexan-2-yl)-1-(6-(dimethyl-amino)pyridin-3-yl)-4-oxo-1,4-dihydro-quinoline-3-carboxylic acid] it was not above 1000 nM; in that of `CN(C)C1CN(c2ccc(-n3cc(C(=O)O)c(=O)c4cc(Cl)c(N5CCC6CC65COc5ncccc5Cl)cc43)cn2)C1` (stereo not shown) [Compound 170, 6-chloro-7-(1-(((3-chloropyridin-2-yl)oxy)methyl)-2-azabicyclo [3.1.0]hexan-2-yl)-1-(6-(3-(dimethyl-amino)azetidin-1-yl)pyridin-3-yl)-4-oxo-1,4-dihydro-quinoline-3-carboxylic acid], not above 1000 nM. Still for that read-out and setting: in the case of `CCc1ccccc1-n1cc(C(=O)O)c(=O)c2cc(F)c(N3CCC[C@@H]3COc3ccccn3)cc21` [Compound 161, (R)-1-(2-ethylphenyl)-6-fluoro-4-oxo-7-(2-((pyridin-2-yloxy)methyl)pyrrolidin-1-yl)-1,4-dihydro-quinoline-3-carboxylic acid] it was 1000 to 10000 nM; in that of `CN(C)C1CN(c2ccc(-n3cc(C(=O)O)c(=O)c4cc(Cl)c(N5CCC[C@@H]5COc5ncc6nc[nH]c6c5Cl)cc43)cn2)C1` [Compound 255, 6-chloro-7-[(2R)-2-[({7-chloro-1H-imidazo [4,5-c]pyridin-6-yl}oxy)methyl]pyrrolidin-1-yl]-1-{6-[3-(dimethyl-amino)azetidin-1-yl]pyridin-3-yl}-4-oxoquinoline-3-carboxylic acid], not above 1000 nM; in that of `CO/N=C1/CCN(c2cc3c(cc2Cl)c(=O)c(C(=O)O)cn3-c2ccc(N3CC(N(C)C)C3)nc2)C1COc1nc(OC)ccc1Cl` (stereo not shown) [Compound 232, (Z)-6-chloro-7-(2-(((3-chloro-6-methoxy-pyridin-2-yl)oxy)methyl)-3-(methoxyimino)pyrrolidin-1-yl)-1-(6-(3-(dimethyl-amino)azetidin-1-yl)pyridin-3-yl)-4-oxo-1,4-dihydro-quinoline-3-carboxylic acid], not above 1000 nM. Regarding `COCCOc1cnc(-n2cc(C(=O)O)c(=O)c3cc(F)c(N4CCC[C@@H]4COc4ncccc4C)cc32)cn1` [Compound 125, (R)-6-fluoro-1-(5-(2-methoxyethoxy)pyrazin-2-yl)-7-(2-(((3-methylpyridin-2-yl)oxy)methyl)pyrrolidin-1-yl)-4-oxo-1,4-dihydro-quinoline-3-carboxylic acid], the IC50 was not above 1000 nM.

Still in this experiment, the particulars now being: Lin28a-dependent Zcchc11 (Z11) TUTase assay; read-out: Potency Lin28a-dep Z11 IC50.
With `O=C(O)c1cn(-c2c[nH]cn2)c2cc(N3CCC[C@@H]3COc3ncccc3Cl)c(Cl)cc2c1=O` [Example 565, (R)-6-chloro-7-(2-(((3-chloropyridin-2-yl)oxy)methyl)pyrrolidin-1-yl)-1-(1H-imidazol-4-yl)-4-oxo-1,4-dihydroquinoline-3-carboxylic acid], the IC50 was not above 1000 nM. For `CN(C)C1CN(c2ccc(-n3cc(C(=O)O)c(=O)c4cc(Cl)c(N5[C@@H](COc6nc(OC7CC7)ccc6Cl)C[C@H]6C[C@H]65)cc43)cn2)C1` [Example 672, 6-chloro-7-((1R,3R,5R)-3-(((3-chloro-6-cyclopropoxy-pyridin-2-yl)oxy)methyl)-2-azabicyclo[3.1.0]hexan-2-yl)-1-(6-(3-(dimethylamino)azetidin-1-yl)pyridin-3-yl)-4-oxo-1,4-dihydroquinoline-3-carboxylic acid], the IC50 is not above 1000 nM. Still for that read-out and setting: in the case of `COCCOc1ccc(-n2cc(C(=O)O)c(=O)c3cc(Cl)c(N4CCC[C@@H]4COc4ncccc4Cl)cc32)cn1` [Example 415, (R)-6-chloro-7-(2-(((3-chloropyridin-2-yl)oxy)methyl)pyrrolidin-1-yl)-1-(6-(2-methoxy-ethoxy)pyridin-3-yl)-4-oxo-1,4-dihydroquinoline-3-carboxylic acid] it was not above 1000 nM; in that of `CNC1CN(c2ccc(-n3cc(C(=O)O)c(=O)c4cc(Cl)c(N5CCC[C@@H]5COc5ncccc5Cl)cc43)cn2)C1` [Example 477, (R)-6-chloro-7-(2-(((3-chloropyridin-2-yl)oxy)methyl)pyrrolidin-1-yl)-1-(6-(3-(methyl-amino)azetidin-1-yl)pyridin-3-yl)-4-oxo-1,4-dihydroquinoline-3-carboxylic acid], not above 1000 nM.
